Tested on: human immortalized myoblasts (cell line 8220)
Test: 2-deoxyglucose treatment during myoblast proliferation
Format: cell-based
From the text: FIG. 2. Deficiency of TDP-43 or FUS curtails anaerobic glucose metabolism and induces pro-atrophic pathways in myoblasts. A-B-C, Metabolic switch during myogenesis. Myoblasts rely mainly on anaerobic glycolysis while differentiating myocytes and myotubes switch towards a more aerobic metabolism (n=6 experiments). D, shTDP-43 and shFUS-treated myoblasts display consistent reductions in basal glycolysis and glycolytic capacity (n=6 experiments). E, Levels of lactate are decreased in shTDP-43 and shFUS-treated myoblasts (n=3). F, Basal mitochondrial ATP production is slightly affected by TDP-43 or FUS silencing, however effects on spare respiratory capacity are variable (n=6 experiments). G, Immunofluorescence and immublot images of MyoD in 2dg-treated myoblasts. H, Immunostaining images showing the effect of 2dg on the number of MyHC-postive myotubes. I, Pro-atrophic pathways of the […] (UPS) are dramatically augmented in shTDP-43 and shFUS-treated myoblasts (n=3). ECAR, Extracellular Acidification Rate; OCR, Oxygen Consumption Rate: 2dg, 2-deoxyglucose. T-test, *p<0.05; **p<0.01.
Decreased levels of lactate in homogenates from shTDP-43 and shFUS-treated myoblasts when compared to those from shRNA-treated myoblasts corroborated defects in the anaerobic oxidation of glucose (FIG. 2E). […] The increased numbers of mitochondria, as observed by TEM and TOMM20 staining (FIG. 1F,G), may provide a compelling explanation for the increased aerobic potential of shTDP-43 treated myoblasts.
A poor metabolic fitness in muscle is often associated to the upregulation of protein degradation pathways and atrophy. Expression of the key muscle specific E3 ubiquitin ligases, muscle RING finger 1 (MuRF1) and muscle atrophy F-box (MAFbx)/Atrogin-1, are markers of the activation of ubiquitin/proteasome system and atrophy in skeletal muscle.

[1] = 2-DG during myoblast proliferation

## O=CC[C@@H](O)[C@H](O)[C@H](O)CO [2-DG, 2-deoxyglucose]
[1]
  activation of MYOD: reduced the activation of MYOD
  myogenic process (MyHC-positive myotubes): stalled the myogenic process
2-DG treated myoblasts
  expression levels of MurF1 and Atrogin-1: mimicked the effects of TDP-43 and FUS silencing
